Data on two molecules can be found in US10660967B2, “Curcumin conjugates and methods of use thereof” (priority 2016, dated 2020).

As usually defined, the IC50 is the concentration at which inhibition is half-maximal.

Like-named read-outs stand apart in the source and are kept apart here.

The test system of series [1] is MCF7 (breast) carcinoma cell line. Nature of the series: Anti-tumor properties, MTT. It is filed as cell-based. To be noted: Homo sapiens, MCF7; read-out: IC50 (μM) MCF7 (breast). Summed up: (§1)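 Cells seeded at 10×10^3 per well for 24 h, then exposed to compound in serum-free medium (final up to 100 μM, 0.5% DMSO vehicle) for 72 h in triplicate. Viability by MTT reduction (4 h, SDS solubilised), absorbance 595 nm/ref 620 nm; IC50 from survival curves.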

Series [2] relates to HepG2 (hepatocellular) carcinoma cell line. The experiment in a line: Anti-tumor properties, MTT. It is filed as cell-based. To be noted: Homo sapiens, HepG2; read-out: IC50 (μM) HepG2 (liver). An outline of the steps: as §1
Series [3] relates to HCT116 (colon) carcinoma cell line. Nature of the series: Anti-tumor properties, MTT. The series is classed as cell-based. As to conditions: Homo sapiens, HCT-116; read-out: IC50 (μM) HCT116 (colon). Summed up:
as §1

The subject of series [4] is Pseudomonas aeruginosa ATCC27853. Nature of the series: Antimicrobial MIC, agar dilution. In general terms: In agar dilution, organisms are placed on agar that contains the substance at set levels.
For series [5], the system named is Staphylococcus aureus ATCC25923. The experiment in a line: Antimicrobial MIC, agar dilution.
In a further series the test system is gastric mucosa. Nature of the series: Ulcerogenic liability (ulcer index). As to conditions: orally, three successive days, 10 mg/kg indomethacin mol equivalent; for Number of animals with ulcer: 6 animals per group; for Ulcer index: sum of the three values. The series is classed as in vivo, albino mice. An outline of the steps: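 Albino mice were fasted 18 h before dosing, and controls got saline with a few drops of Tween 80. Gastric mucosa was checked under a 10× lens for lesions and erosions. The ulcer index combines percentage incidence divided by 10, mean ulcers per stomach and mean severity.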

For series [6], the system named is lipopolysaccharide-stimulated peritoneal macrophages. The experiment in a line: Production of nitric oxide by lipopolysaccharide-stimulated peritoneal macrophages (Greiss reagent). The series is classed as cell-based. Also noted: Potency (%): % inhibition of nitric oxide production relative to lipopolysaccharide-stimulated macrophages: concentration or dose not given beside the values. As to conditions: LPS-stimulated peritoneal macrophages; for Nitric oxide (nitrite) concentration, μM (average ± SD): 24 h, nitrite by Greiss reagent. An outline of the steps:
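Macrophages in nitrite-free medium with 0.1% BSA were stimulated with LPS at 0.5–10 ng/ml, some wells also receiving epinephrine, norepinephrine or dopamine at […], for 24 h at 37° C. Nitrite in supernatants was measured with Greiss reagent, 15 min at room temperature, absorbance 532 nm.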

Series [7] concerns A-549 (lung) carcinoma cell line. Nature of the series: Anti-tumor properties, MTT. It is filed as cell-based. As to conditions: Homo sapiens, A549.
The subject of series [8] is Streptococcus pyogenes ATCC19615. The experiment in a line: Antimicrobial MIC, agar dilution.
The test system of series [9] is Salmonella typhi ATCC19430. Nature of the series: Antimicrobial MIC, agar dilution. As to conditions: Salmonella enterica, read-out: Minimum inhibitory concentration (MIC). It is filed as cell-based.
Series [10] relates to Candida albicans (local isolate). Nature of the series: Antimicrobial MIC, agar dilution. As to conditions: Candida albicans, read-out: Minimum inhibitory concentration (MIC).
Series [11] has as its system PHA-stimulated splenocytes. The experiment in a line: Proliferative response of PHA-stimulated splenocytes (MTT assay). As to conditions: PHA 5 μg/ml, 72 hr; compounds at 5 μM (method says 10 μM); ratio of O.D. versus vehicle control. It is filed as cell-based. An outline of the steps: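 Freshly prepared splenocytes (1×10^6 cells/well) were cultured for 72 h at 37° C with compound at 10 μM final, with or without PHA (5 μg/ml). Viability was read by MTT (4 h), with absorbance at 570 nm against 690 nm reference. Stimulation index is the OD ratio of treated versus vehicle cultures.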

For series [12], the system named is PC3 (prostate) carcinoma cell line. Nature of the series: Anti-tumor properties, MTT. The series is classed as cell-based. To be noted: Homo sapiens.
The mark [13] stands for this setting: ATCC27853, 18 h, read-out: Minimum inhibitory concentration (MIC).
The mark [14] stands for this setting: ATCC27853, read-out: Minimum inhibitory concentration (MIC).
[15] abbreviates: ATCC25923, 18 h, read-out: Minimum inhibitory concentration (MIC).
Where [16] appears, read: ATCC25923, read-out: Minimum inhibitory concentration (MIC).
The mark [17] stands for this setting: ATCC19615, 18 h, read-out: Minimum inhibitory concentration (MIC).
The mark [18] stands for this setting: ATCC19615, read-out: Minimum inhibitory concentration (MIC).

For `COc1cc(/C=C/C(=O)CC(=O)/C=C/c2ccc(OC(=O)[C@@H](N)CCSC)c(OC)c2)ccc1OC(=O)[C@@H](N)CCSC.Cl.Cl` [HCl-L-Met-Cur, (2S,2′S)-1,1′-((((1E,6E)-3,5-dioxohepta-1,6-diene-1,7-diyl)bis(2-methoxy-4,1-phenylene))bis(oxy))bis(4-(methylthio)-1-oxobutan-2-aminium) chloride], the IC50 in [1] was found to be 11.3 µM; in series [2], 39.8 µM; in series [3] it was 61.9 µM; in [7], 32.8 µM; in [12] it was 42.6 µM. The MIC in [4] (setting [13]) turned out to be 0.5 µg/mL; in [4] (setting [14]) it was 0.711 µM; in series [5] (setting [15]) it was 0.25 µg/mL; in series [5] (setting [16]), 0.355 µM; in [8] (setting [17]), 0.5 µg/mL; in series [8] (setting [18]), 0.711 µM. Also, the MIC in series [9] (18 h) was determined as 0.125 µg/mL; in [9] it was 0.178 µM; in series [10] (18 h) it was 0.5 µg/mL; in series [10] it was 0.711 µM. In the series with gastric mucosa, the “% Incidence of ulcer divided by 10” value was 0. Moreover, the “Average of ulcer number” value in the series on gastric mucosa was 0. Besides, the “Average severity of ulcer” value with gastric mucosa is recorded as 0. In the series with gastric mucosa, the “Number of animals with ulcer” value is 0/6. Besides, the Ulcer index in the series with gastric mucosa is 0. Further, the “Potency (%): % inhibition of nitric oxide production relative to lipopolysaccharide-stimulated macrophages” value in [6] stood at 37.94%. For the same molecule, the “Nitric oxide (nitrite) concentration, μM (average ± SD)” value in series [6] is 16.95 ± 0.40 µM. The “Stimulation Index (average ± SD)” value in series [11] was 1.49 ± 0.06.

As to `COc1cc(/C=C/C(=O)CC(=O)/C=C/c2ccc(OC(=O)[C@@H](C)NC(=O)OCc3ccccc3)c(OC)c2)ccc1OC(=O)[C@@H](C)NC(=O)OCc1ccccc1` [Z-D-Ala-Cur, ((1E,6E)-3,5-dioxohepta-1,6-diene-1,7-diyl)bis(2-methoxy-4,1-phenylene) (2R,2′R)-bis(2-(((benzyloxy)carbonyl)amino)propanoate)], the IC50 in [1] was 73 µM; in [2], above 100 µM; in [3], above 100 µM; in [7], above 100 µM; in series [12] it was above 100 µM. Moreover, the MIC came out at 1 µg/mL in series [4] (setting [13]); 1.28 µM in series [4] (setting [14]); 0.5 µg/mL in [5] (setting [15]); 0.642 µM in series [5] (setting [16]); 0.125 µg/mL in [8] (setting [17]); 0.161 µM in [8] (setting [18]). Moreover, the MIC in series [9] (18 h) came to 0.5 µg/mL; in series [9] it was 0.642 µM; in series [10] (18 h), 0.5 µg/mL; in series [10] it was 0.642 µM. The “% Incidence of ulcer divided by 10” value with gastric mucosa is 0. Further, the “Average of ulcer number” value in the series on gastric mucosa worked out at 0. For the same molecule, the “Average severity of ulcer” value in the series on gastric mucosa is listed as 0. Further, in the series with gastric mucosa, the “Number of animals with ulcer” value is reported as 0/6. The Ulcer index in the series on gastric mucosa was 0. The “Potency (%): % inhibition of nitric oxide production relative to lipopolysaccharide-stimulated macrophages” value in [6] was 35.45%. Besides, the “Nitric oxide (nitrite) concentration, μM (average ± SD)” value in series [6] came to 17.63 ± 0.92 µM. The “Stimulation Index (average ± SD)” value in [11] stood at 1.59 ± 0.14.
